Results published in US10959997B2, “Combined agent for cell therapy of corneal endothelial cell” (KYOTO PREFECTURAL PUBLIC UNIVERSITY CORPORATION, priority 2013, dated 2021).
Where a name gives a salt, the structure may show the parent alone. Read-outs that look alike come from different tables or passages of the source.

Experiments:
[1] = system: type II myosin; settings: enantiomer of blebbistatin; cited from earlier work
[2] = system: non-muscle myosin II; settings: cited from earlier work
[3] = system: skeletal muscle myosin II; settings: cited from earlier work
[4] = system: actin polymerization; settings: cited from earlier work
[5] = system: paxillin phosphorylation; experiment: Western blot of adhesion-related molecules (phospho paxillin); type: cell-based, cynomolgus monkey
[6] = system: cultured monkey corneal endothelial cells; experiment: Examination of number of adhering cells with CellTiter-Glo; type: cell-based, cynomolgus monkey
[7] = system: focal adhesion kinase (FAK) phosphorylation; type: cell-based, cynomolgus monkey
[8] = system: rabbit bullous keratopathy model; experiment: Transplantation of cultured corneal endothelial cells in combination with inhibitor, injected into the anterior chamber; type: in vivo; settings: for state of the anterior ocular section after transplantation (pictures): day 3, day 7, day 14
Protocol: In primary culture of rabbit corneal endothelial cells, a Descemet's membrane including an endothelial cell layer was detached from a corneal tissue and 0.5 ml of Accutase (catalog number: AT104, Innovative Cell Technologies) was used for each eye, and incubated at 37° C. by using a water bath. After 20 minutes, a culture medium was added and pipetting was performed. The sample was centrifuged at 1200 rpm for 3 minutes to remove the supernatant. A culture medium was then added to a precipitated corneal endothelial cell mass for admixing. The entire amount was seeded on a 12-well plate coated with FNC Coating Mix (catalog No.: 0407; Athena Enzyme Systems, Baltimore, Md., USA). DMEM (catalog No.: 12320; Gibco-Invitrogen), to which 10% FBS, 1% Penicillin-Streptomycin Mixed Solution (catalog number: 26252-94; Nacalai Tesque), and 2 ng/ml basic fibroblast growth factor, catalog number: 13256-029; bFGF; Invitrogen) were added, was used as a culture medium.
A medium was exchanged every other day. Subculture was performed when 50 to 80% confluence was reached. With respect to the subculturing method, cells were washed with Ca^2+Mg^2+-free PBS (PBS−; Nissui Pharmaceutical Co., Ltd., Tokyo, Japan), and 0.05% Trypsin-EDTA (catalog No.: 25300-054; Invitrogen) was added and incubated at 37° C. for 3 minutes. Cells were detached and collected from the plate. After the cells were centrifuged at 1500 rpm for 3 minutes, a culture medium was added to make a cell suspension. Cells were seeded on a plate coated with FNC Coating Mix at a density of 1:2-3.
Rabbit corneal endothelial cells were detached with a soft tapered needle (Inami, M-563S) to make a bullous keratopathy model. Subsequently, 5.0×10^5 cultured rabbit corneal endothelial cells were suspended in 200 μl of Dulbecco's Modified Eagle Medium (DMEM) with blebbistatin adjusted to a final concentration of 10 μM. The suspension was injected into the anterior chamber and the corneal surface was maintained in a face-down position for three hours. A group injected with 5.0×10^5 rabbit corneal endothelial cells suspended into 200 μl of Dulbecco's Modified Eagle Medium (DMEM) with Y-27632 adjusted to a final concentration of 100 μM in the anterior chamber, a group subjected only to scraping off of corneal endothelial cells, and a group injected with 5.0×10^5 rabbit corneal endothelial cells suspended in a 200 μl of Dulbecco's Modified Eagle Medium (DMEM) into the anterior chamber were used as comparison groups.
A rabbit bullous keratopathy model eye with the corneal endothelium scraped off was injected with 5.0×10^5 cultured rabbit corneal endothelial cells suspended in 200 μl of Dulbecco's Modified Eagle Medium (DMEM) with blebbistatin adjusted to a final concentration of 1 μM and 3 μM into the anterior chamber as in Example 3. […]

[9] = system: myosin light chain (MLC) phosphorylation; experiment: Western blot of Rho-ROCK pathway activity (phospho myosin light chain); type: cell-based, cynomolgus monkey
Protocol: DMEM (Gibco-Invitrogen) to which Y-27632 was added such that the final concentration would be 10 μM and cultured monkey corneal endothelial cells were seeded. Over time, i.e., 0, 1, 3, and 24 hours thereafter, proteins extracted with RIPA buffer were subjected to electrophoresis with 7.5% polyacrylamide. DMEM (Gibco-Invitrogen) was used as a control. The separated protein was transcribed onto a PVDF membrane (PALL LIFE SCIENCE, catalog number: EH-2222). Blocking procedure was carried out by incubating a Tris buffered saline (10 mM Tris-HCl, pH 7.4, 100 mM NaCl) supplemented with 0.1% (vol/vol) polyethylene sorbitan monolaurate (Nacalai Tesque, catalog number: 28353-85) (TBS-T) and 5% non-fat dry milk (CELL SIGNALING, catalog number: 9999) and the blotted membrane for one hour. The membrane was then immersed in TBS-T supplemented with antibodies against Phospho Myosin Light Chain 2 (Thr18/Ser19) (CELL SIGNALING, catalog number: 3674), Phospho FAK (Y397) (D20B1) Rabbit mAb (CELL SIGNALING, catalog number: 8556), Phospho Paxillin (Tyr118) Antibody (CELL SIGNALING, catalog number: 2541), GAPDH (14C10) Rabbit mAb (CELL SIGNALING, catalog number: 2118) and diluted 1000-fold, and reacted for 1 hour at room temperature. […]

Cc1ccc2c(c1)C(=O)C1(O)CCN(c3ccccc3)C1=N2 (single isomer, unassigned; (+)) [(+) form]
effect as myosin II-specific inhibitor [1]: does not

CC(=O)C(C)=NO [BDM, 2,3-butanedione monoxime]
inhibiting effect on non-muscle myosin II [2]: does not have an inhibiting effect | action on skeletal muscle myosin II [3]: has action on skeletal muscle myosin II | effect on actin polymerization [4]: inhibiting actin polymerization

C[C@@H](N)[C@H]1CC[C@H](C(=O)Nc2ccncc2)CC1 [Y-27632, (R)-(+)-trans-(4-pyridyl)-4-(1-aminoethyl)-dihydrochloride cyclohexanecarboxamide monohydrate]
phosphorylation of paxillin [5]: phosphorylated at an early stage | number of adhering cells [6]: significantly increased | phosphorylation of FAK [7]: phosphorylated at an early stage | state of the anterior ocular section after transplantation (pictures) ([8]; Y-27632 100 μM with 5.0×10^5 cells in 200 μl DMEM): excellent | concentration at which efficacy is exhibited ([8]; animal models with bullous keratopathy): 10 to 100 µM | MLC phosphorylation ([9]; Y-27632 10 μM, 0, 1, 3 and 24 hours): suppresses

Cc1ccc2c(c1)C(=O)[C@]1(O)CCN(c3ccccc3)C1=N2 [blebbistatin, (S)-(−)-Blebbistatin]
phosphorylation of paxillin ([5]; blebbistatin 100 μM, 0, 1, 3 and 24 hours): phosphorylated at an early stage | number of adhering cells ([6]; blebbistatin 100 μM, three hours from seeding, in comparison to the control (DMEM)): significantly increased | effect as myosin II-specific inhibitor [1]: has an effect | concentration needed for therapy compared with Y-27632 ([8]; blebbistatin 1 μM, 3 μM, 10 μM versus Y-27632 100 μM): therapy was possible at a lower concentration relative to Y-27632 | state of the anterior ocular section after transplantation (pictures) ([8]; blebbistatin 10 μM with 5.0×10^5 cells in 200 μl DMEM): excellent as with Y-27632 | MLC phosphorylation activity ([9]; addition of blebbistatin, stated in the discussion): suppression of the MLC phosphorylation activity
